# Experimental data taken from patent publication US10435402B2, “Bicyclic compounds, compositions and medicinal applications thereof” (Advinus Therapeutics Limited, priority 2015, dated 2019).
# Molecular target: T1, GAL4-DBD/RORγ-LBD (Homo sapiens, UniProt P51449)
# T1 construct: expressed in transfected cells; host or cells: HEK293T
# Test: RORγt transactivation reporter assay (GAL4-DBD/RORγ-LBD, luciferase read out)
# Type: cell-based
# Settings: HEK293T cells, GAL4-UAS luciferase reporter, overnight (18-24 hours) incubation
# Procedure: RORγt Transactivation Reporter Assay Protocol: The inhibition of RORγt activity in cells was evaluated using a GAL4-UAS reporter system in HEK293T cells employing a luciferase read out. RORγt ligand binding domain (LBD) was cloned into the pFN26A (BIND) vector (Promega #[…]) containing yeast GAL4-DBD to form a RORγt LBD-GAL4 DBD fusion construct. This vector also contained a Renilla Luciferase reporter expressed under a SV40 promoter which was used as a control for transfection efficiency. A transcriptional reporter expression construct pGL4.35 (Promega #[…]) was used to monitor RORγt LBD-GAL4 activity. This construct contained nine repeats of GAL4 binding site/upstream activating sequence (UAS) controlling expression of a firefly luciferase reporter Luc2P. When transfected together in cells, the RORγ-LBD-DBD fusion protein drives expression of the luciferase reporter. For the assay, HEK293T cells were plated in a flat bottom 96 well plate at a density of 25,000 cells/well/100 ul of DMEM high glucose medium (Sigma D5648) containing 10% FBS and antibiotic. Cells were incubated overnight at 37 C/5% CO2. The next day, medium from the wells was removed and replaced with 30 ul of OptiMEM® (Invitrogen #31985070). 100 ng each of pBIND RORγ LBD-DBD and pGL4.35 reporter plasmids was transfected in HEK293T cells using Lipofectamine 2000 (Invitrogen #11668-019) where 10 ul of transfection complex was added to the each well. Control transfections were performed with an empty pF[…] vector and pGL4.35 vector. The transfected cells were incubated for 5 hours at 37 C/5% CO2. After incubation, 40 ul of DMEM high glucose medium without FBS, with antibiotic was added to each well. A 10 mM stock solution of test compound prepared in 100% DMSO was first diluted in DMSO and then in DMEM medium without FBS to give the required final compound concentration. Concentration of DMSO in the test compound solution was 0.4%. 20 ul of diluted compound solution was added to each well. Cells were incubated overnight (18-24 hours) at 37 C/5% CO2. The next day, luciferase assay was performed using the Dual Glo® Luciferase Assay System (Promega #E2940). Briefly, medium was removed from the wells and replaced with 40 ul 1× Passive Lysis Buffer (Promega #E1941). Plate was incubated at room temperature on a plate shaker at 1000 rpm for 40 min. After incubation, plate was centrifuged at 1000 rpm for 2 min. 20 ul of the lysate was transferred from each well to that of solid white half area 96 well plate (Costar #3693). Dual Glo® Reagent was thawed to room temperature and 20 ul was added to each well containing lysate. Plate was centrifuged at 1000 rpm/2 min and incubated at room temperature on a plate shaker at 600 rpm/25 min. Firefly luciferase signal was measured on a Tecan Safire2. After measurement, 20 ul of Dual Glo® Stop Glo® Reagent was added to each well. Plate was centrifuged at 1000 rpm/2 min and incubated at room temperature on a plate shaker at 600 rpm/25 min. Renilla luciferase signal was measured on Tecan Safire 2. IC50 values for test compounds were calculated from the normalized luciferase signal data using GraphPad Prism software.
# T1 sequence (P51449 269-508 limits assumed): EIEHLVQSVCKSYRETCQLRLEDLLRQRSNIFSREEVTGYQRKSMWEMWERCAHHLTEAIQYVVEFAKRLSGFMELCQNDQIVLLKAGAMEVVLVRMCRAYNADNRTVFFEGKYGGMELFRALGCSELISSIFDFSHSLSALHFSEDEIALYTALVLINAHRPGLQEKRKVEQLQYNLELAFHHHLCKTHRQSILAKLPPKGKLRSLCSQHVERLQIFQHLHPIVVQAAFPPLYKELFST
# T1 sequence (P04386 1-147 partner limits assumed): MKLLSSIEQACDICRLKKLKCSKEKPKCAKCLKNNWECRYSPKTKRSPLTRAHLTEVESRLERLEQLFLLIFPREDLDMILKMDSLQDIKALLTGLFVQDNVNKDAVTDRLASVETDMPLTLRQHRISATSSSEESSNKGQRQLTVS
row,Compound,IC50
1,"CCOC(=O)c1ccc(-c2cc(C(=O)c3c(Cl)cccc3C3CC3)n3ccccc23)cc1 [Example A-31, ethyl 4-[3-(2-chloro-6-cyclopropyl-benzoyl)indolizin-1-yl]benzoate]",< 500 nM
2,"CCOC(=O)c1ccc(-c2cc(C(=O)c3c(F)cccc3F)n3ccccc23)cc1 [Example A-36, ethyl 4-[3-(2,6-difluorobenzoyl)indolizin-1-yl]benzoate]",< 500 nM
3,"O=C(O)c1ccc(-c2cc(C(=O)c3c(F)cccc3F)n3ccccc23)c(F)c1 [Example A-39, 4-[3-(2,6-difluorobenzoyl)indolizin-1-yl]-3-fluoro-benzoic acid]",< 500 nM
4,"O=C(O)c1ccc(-c2cc(C(=O)c3c(F)ccc(F)c3F)n3ccccc23)cc1 [Example A-42, 4-[3-(2,3,6-trifluorobenzoyl)indolizin-1-yl]benzoic acid]",< 500 nM
5,"O=C(O)c1ccc(-c2cc(C(=O)c3c(F)ccc(F)c3F)n3ccccc23)c(F)c1 [Example A-44, 3-fluoro-4-[3-(2,3,6-trifluorobenzoyl)indolizin-1-yl]benzoic acid]",< 500 nM
6,"CCOC(=O)c1ccc(-c2cc(C(=O)c3c(F)cccc3F)n3cccc(F)c23)c(F)c1 [Example A-46, ethyl 4-[3-(2,6-difluorobenzoyl)-8-fluoro-indolizin-1-yl]-3-fluoro-benzoate]",< 500 nM
7,"O=C(O)c1ccc(-c2cc(C(=O)c3c(F)cccc3F)n3cccc(F)c23)cc1 [Example A-47, 4-[3-(2,6-difluorobenzoyl)-8-fluoro-indolizin-1-yl]benzoic acid]",< 500 nM
8,"O=C(O)c1ccc(-c2cc(C(=O)c3c(F)cccc3F)n3cccc(F)c23)c(F)c1 [Example A-48, 4-[3-(2,6-difluorobenzoyl)-8-fluoro-indolizin-1-yl]-3-fluoro-benzoic acid]",< 500 nM
9,"O=C(O)c1ccc(-c2cc(C(=O)c3c(Cl)cccc3Br)n3ccccc23)c(F)c1 [Example A-52, 4-[3-(2-bromo-6-chloro-benzoyl)indolizin-1-yl]-3-fluoro-benzoic acid]",< 1000 nM
10,"CC(C)(C)OC(=O)N1CC=C(c2cc(C(=O)c3c(Cl)cccc3Cl)n3ccccc23)CC1 [Example A-54, tert-butyl 4-[3-(2,6-dichlorobenzoyl)indolizin-1-yl]-3,6-dihydro-2H-pyridine-1-carboxylate]",> 5000 nM
11,"CC(C)(C)OC(=O)N1CCC=C(c2cc(C(=O)c3c(Cl)ccc(F)c3Cl)n3ccccc23)C1 [Example A-55, tert-butyl 5-[3-(2,6-dichloro-3-fluoro-benzoyl)indolizin-1-yl]-3,6-dihydro-2H-pyridine-1-carboxylate]",> 5000 nM
12,"O=C(O)c1ccc(-c2cc(C(=O)c3c(Cl)cccc3C(F)(F)F)n3cccc(Cl)c23)cc1 [Example A-58, 4-[8-chloro-3-[2-chloro-6-(trifluoromethyl)benzoyl]indolizin-1-yl]benzoic acid]",< 500 nM
13,"O=C(O)c1ccc(-c2cc(C(=O)c3c(Cl)cccc3C(F)(F)F)n3ccccc23)cc1F [Example A-60, 4-[3-[2-chloro-6-(trifluoromethyl)benzoyl]indolizin-1-yl]-2-fluoro-benzoic acid]",< 500 nM
14,"O=C(O)c1ccc(-c2cc(C(=O)c3c(Cl)cccc3Cl)n3cccc(C(F)(F)F)c23)cc1 [Example A-61, 4-[3-(2,6-dichlorobenzoyl)-8-(trifluoromethyl)indolizin-1-yl]benzoic acid]",< 500 nM
15,"O=C(O)c1ccc(-c2cc(C(=O)c3c(Cl)cccc3Cl)n3cc(C(F)(F)F)ccc23)cc1 [Example A-63, 4-[3-(2,6-dichlorobenzoyl)-6-(trifluoromethyl)indolizin-1-yl]benzoic acid]",< 5000 nM
16,"CCOC(=O)c1ccc(-c2cc(C(=O)c3c(Cl)cccc3Cl)n3cc(C(F)(F)F)ccc23)cc1 [Example A-64, ethyl 4-[3-(2,6-dichlorobenzoyl)-6-(trifluoromethyl)indolizin-1-yl]benzoate]",< 500 nM
17,"O=C(c1c(Cl)cccc1C(F)(F)F)c1cc(C2=CCC(C(=O)O)CC2)c2ccccn12 (stereo not drawn) [Example A-65, 4-[3-[2-chloro-6-(trifluoromethyl)benzoyl]indolizin-1-yl]cyclohex-3-ene-1-carboxylic acid]",< 500 nM

# Further lines, results first:
row,IC50,Compound
1,< 500 nM,"CCOC(=O)c1ccc(-c2cc(C(=O)c3c(F)cccc3Cl)n3cccc(F)c23)cc1 [Example A-32, ethyl 4-[3-(2-chloro-6-fluoro-benzoyl)-8-fluoro-indolizin-1-yl]benzoate]"
2,< 500 nM,"O=C(O)c1ccc(-c2cc(C(=O)c3c(F)cccc3Cl)n3cccc(F)c23)cc1 [Example A-34, 4-[3-(2-chloro-6-fluoro-benzoyl)-8-fluoro-indolizin-1-yl]benzoic acid]"
3,< 500 nM,"O=C(O)c1ccc(-c2cc(C(=O)c3c(F)cccc3Cl)n3cccc(F)c23)c(F)c1 [Example A-35, 4-[3-(2-chloro-6-fluoro-benzoyl)-8-fluoro-indolizin-1-yl]-3-fluoro-benzoic acid]"
4,< 500 nM,"CCOC(=O)c1ccc(-c2cc(C(=O)c3c(F)cccc3F)n3ccccc23)c(F)c1 [Example A-38, ethyl 4-[3-(2,6-difluorobenzoyl)indolizin-1-yl]-3-fluoro-benzoate]"
5,< 500 nM,"CCOC(=O)c1ccc(-c2cc(C(=O)c3c(F)ccc(F)c3F)n3ccccc23)c(F)c1 [Example A-41, ethyl 3-fluoro-4-[3-(2,3,6-trifluorobenzoyl)indolizin-1-yl]benzoate]"
6,< 500 nM,"O=C(O)c1ccc(-c2cc(C(=O)c3c(Cl)ccc(F)c3Cl)n3cccc(F)c23)cc1 [Example A-43, 4-[3-(2,6-dichloro-3-fluoro-benzoyl)-8-fluoro-indolizin-1-yl]benzoic acid]"
7,< 500 nM,"CCOC(=O)c1ccc(-c2cc(C(=O)c3c(F)cccc3F)n3cccc(F)c23)cc1 [Example A-45, ethyl 4-[3-(2,6-difluorobenzoyl)-8-fluoro-indolizin-1-yl]benzoate]"
8,< 500 nM,"O=C(O)c1ccc(-c2cc(C(=O)c3c(Cl)ccc(F)c3Cl)n3cccc(F)c23)c(F)c1 [Example A-49, 4-[3-(2,6-dichloro-3-fluoro-benzoyl)-8-fluoro-indolizin-1-yl]-3-fluoro-benzoic acid]"
9,< 5000 nM,"O=C(O)c1ccc(-c2cc(C(=O)c3c(Cl)cccc3Br)n3ccccc23)cc1 [Example A-50, 4-[3-(2-bromo-6-chloro-benzoyl)indolizin-1-yl]benzoic acid]"
10,< 500 nM,"CCOC(=O)c1ccc(-c2cc(C(=O)c3c(Cl)ccc(F)c3Cl)n3ccccc23)cc1 [Example A-56, ethyl 4-[3-(2,6-dichloro-3-fluoro-benzoyl)indolizin-1-yl]benzoate]"
11,> 5000 nM,"O=C(O)c1cccc(-c2cc(C(=O)c3c(Cl)cccc3C(F)(F)F)n3ccccc23)c1 [Example A-57, 3-[3-[2-chloro-6-(trifluoromethyl)benzoyl]indolizin-1-yl]benzoic acid]"
12,< 500 nM,"O=C(O)c1ccc(-c2cc(C(=O)c3c(Cl)cccc3C(F)(F)F)n3cccc(Cl)c23)c(F)c1 [Example A-59, 4-[8-chloro-3-[2-chloro-6-(trifluoromethyl)benzoyl]indolizin-1-yl]-3-fluoro-benzoic acid]"
13,< 500 nM,"CCOC(=O)c1ccc(-c2cc(C(=O)c3c(Cl)cccc3Cl)n3cccc(C(F)(F)F)c23)cc1 [Example A-62, ethyl 4-[3-(2,6-dichlorobenzoyl)-8-(trifluoromethyl)indolizin-1-yl]benzoate]"
